Data taken from US20230122991A1, “GROWTH FACTOR FORMULATION FOR CONDITION ASSOCIATED WITH OTIC EVENT” (OTONOMY, INC., priority 2020, published 2023).

B1: neurotrophin-3 (protein, UniProt P20783 139-257, looked up)
Neurotrophin-3: YAEHKSHRGEYSVCDSESLWVTDKSSAIDIRGHQVTVLGEIKTGNSPVKQYFYETRCKEARPVKNGCRGIDDKHWNSQCKTSQTYVRALTSENNKLVGWRWIRIDTSCVCALSRKIGRT
modifications: Neurotrophin-3

Experiments:
[1] = system: Spiral ganglion neurons (SGNs); assay: Survival of spiral ganglion neurons (Example C); type: cell-based, rat; settings: 1 μM; compared to a vehicle-only control, 0.01% DMSO; FIG. 6C
Method: Spiral ganglion neurons (SGNs) were harvested from P1-P3 rates, dissociated, and cultured in 96-well plates. The SGNs were treated with neurotrophins and/or antibodies at various concentrations. After about 24 hours, media was exchanged to serum-free media and the neurotrophins and/or antibodies were replenished. Cells were cultured for an additional 48-72 hours before being fixed using 4% paraformaldehyde (PFA) and stained using 4′,6-diamidino-2-phenylindole (DAPI). […] Surviving neurons were identified as cells with intact soma and at least one neurite.

SGNs = assay: SGN complexity, dissociated SGNs (Example D); type: cell-based, rat; settings: differences upon treatment, FIG. 7D
Excerpt: SGNs were immunostained, imaged, and batch analyzed with PerkinElmer Harmony 4.6 software. Changes in the complexities of SGNs upon treatment with various agents were examined. […] All of the images in a single well were stitched together and analyzed. SGN somas are shown in the upper right panel and SGN neurites are shown in the lower left panel. As shown in the lower right panel, each neurite tree is assigned to a single cell for analysis. Depending on the stitching, occasionally neurites will not meet the criteria due to gaps that exceed a user-defined threshold.

Row | Molecule | Survival of SGNs [1] | total neurite length, total number of extremities, segments, and nodes per cell (SGNs)
1 | OCCN(CCO)c1ccc(C(c2ccc(Cl)cc2)c2ccc(N(CCO)CCO)cc2)cc1 [LM22b10] | not improved | 
2 | B1 |  | not statistically significant
